Test results: ChEMBL document CHEMBL6153102, “Rational Design, Synthesis, and Biological Evaluation of Novel c-Met Degraders for Lung Cancer Therapy” (J Med Chem, 2025)
The source made the active and inactive calls. The calls are words filed in the database; no cut-off is given here.

Experiments:
[1] = system: EBC-1; assay: Induction of apoptosis in human EBC-1 cells assessed as necrotic cells at 15 nM incubated for 24 hrs by Annexin V/FITC staining based flow cytometry analysis (reference value: 0.35 %); assay type: functional
[2] = Half life in Sprague-Dawley rat at 2 mg/kg, iv measured upto 24 hrs by LC-MS/MS analysis; assay type: ADME, organism-based; conditions: in vivo
[3] = Volume of distribution at steady state in Sprague-Dawley rat at 2 mg/kg, iv measured upto 24 hrs by LC-MS/MS analysis; assay type: ADME, organism-based; conditions: in vivo
[4] = target: T1, Protein cereblon/Hepatocyte growth factor receptor (Homo sapiens, UniProt P08581+Q96SW2); assay: PROTAC activity at c-Met/CRBN in human EBC-1 cells assessed as induction of c-Met degradation incubated for 24 hrs by Western blotting analysis; assay type: cell-based
[5] = system: EBC-1; assay: Induction of apoptosis in human EBC-1 cells assessed as upregulation of PARP level incubated for 24 hrs by Western blot analysis; assay type: functional, cell-based; conditions: dose 5-50 nM
[6] = system: EBC-1; assay: Antitumor activity against human EBC-1 cells xenografted BALB/c nude mouse assessed as reduction in Ki67 expression at 10 to 20 mg/kg, ip administered for 7 days by immunohistochemical analysis; assay type: functional, organism-based; conditions: dose 10-20 mg/kg, time 7.0 day
[7] = system: EBC-1; assay: Inhibition of colony formation in human EBC-1 cells at 3.9 to 15.6 nM incubated for 7 days by crystal violet staining based analysis; assay type: functional, cell-based; conditions: dose 3.9-15.6 nM, time 7.0 day
[8] = target: T1, Protein cereblon/Hepatocyte growth factor receptor; assay: PROTAC activity at c-Met/CRBN in human HCT-116 cells assessed as induction of c-Met degradation at 100 nM incubated for 24 hrs by Western blotting analysis relative to control; assay type: cell-based
Target sequence in this assay (P08581 25-1390 limits assumed): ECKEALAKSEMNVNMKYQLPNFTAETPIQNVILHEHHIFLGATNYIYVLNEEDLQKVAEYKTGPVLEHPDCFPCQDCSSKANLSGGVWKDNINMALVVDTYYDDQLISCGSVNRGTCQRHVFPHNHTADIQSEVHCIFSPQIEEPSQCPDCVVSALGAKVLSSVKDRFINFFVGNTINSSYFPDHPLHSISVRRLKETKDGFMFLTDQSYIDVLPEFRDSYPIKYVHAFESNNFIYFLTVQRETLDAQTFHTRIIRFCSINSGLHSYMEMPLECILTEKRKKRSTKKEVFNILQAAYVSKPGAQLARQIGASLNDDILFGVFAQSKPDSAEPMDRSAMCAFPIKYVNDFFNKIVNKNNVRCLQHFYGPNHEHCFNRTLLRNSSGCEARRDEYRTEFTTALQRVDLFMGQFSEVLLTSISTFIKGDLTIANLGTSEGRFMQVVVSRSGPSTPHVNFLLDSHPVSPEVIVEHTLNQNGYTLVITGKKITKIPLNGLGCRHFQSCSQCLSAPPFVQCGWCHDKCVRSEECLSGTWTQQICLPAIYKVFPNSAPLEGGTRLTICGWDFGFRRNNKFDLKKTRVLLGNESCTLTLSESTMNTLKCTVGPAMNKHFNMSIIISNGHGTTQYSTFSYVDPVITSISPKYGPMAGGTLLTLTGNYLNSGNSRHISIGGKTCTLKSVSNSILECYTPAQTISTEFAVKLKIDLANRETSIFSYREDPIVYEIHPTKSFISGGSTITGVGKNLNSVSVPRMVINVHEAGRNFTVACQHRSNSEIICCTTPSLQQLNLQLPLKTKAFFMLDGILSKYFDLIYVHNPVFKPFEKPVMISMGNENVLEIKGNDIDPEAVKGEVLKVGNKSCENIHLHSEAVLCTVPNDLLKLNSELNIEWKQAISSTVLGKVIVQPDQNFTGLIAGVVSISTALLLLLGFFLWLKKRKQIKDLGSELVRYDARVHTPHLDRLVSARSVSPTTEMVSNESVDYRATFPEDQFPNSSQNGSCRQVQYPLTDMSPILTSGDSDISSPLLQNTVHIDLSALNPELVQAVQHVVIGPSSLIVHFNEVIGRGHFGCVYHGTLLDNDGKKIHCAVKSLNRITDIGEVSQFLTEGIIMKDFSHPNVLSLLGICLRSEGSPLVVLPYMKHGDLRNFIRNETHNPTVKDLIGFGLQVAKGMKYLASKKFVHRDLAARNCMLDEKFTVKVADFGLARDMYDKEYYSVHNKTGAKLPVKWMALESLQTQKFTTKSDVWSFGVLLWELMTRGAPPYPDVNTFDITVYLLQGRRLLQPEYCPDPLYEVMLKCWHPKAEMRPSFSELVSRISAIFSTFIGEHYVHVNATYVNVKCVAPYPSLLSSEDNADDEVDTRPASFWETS
Target sequence in this assay (Q96SW2 whole entry partner): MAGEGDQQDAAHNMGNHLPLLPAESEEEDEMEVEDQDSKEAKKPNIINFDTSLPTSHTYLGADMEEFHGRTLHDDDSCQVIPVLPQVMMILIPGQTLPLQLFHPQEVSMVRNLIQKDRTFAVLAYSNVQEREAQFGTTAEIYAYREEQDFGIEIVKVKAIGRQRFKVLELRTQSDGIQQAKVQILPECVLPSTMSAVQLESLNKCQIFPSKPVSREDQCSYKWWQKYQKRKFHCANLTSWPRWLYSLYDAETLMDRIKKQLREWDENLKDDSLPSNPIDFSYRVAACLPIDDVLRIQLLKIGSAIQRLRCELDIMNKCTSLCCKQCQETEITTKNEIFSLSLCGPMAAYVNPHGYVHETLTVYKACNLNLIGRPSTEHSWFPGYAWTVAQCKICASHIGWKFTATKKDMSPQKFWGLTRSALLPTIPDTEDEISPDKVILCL

[9] = target: T1, Protein cereblon/Hepatocyte growth factor receptor; assay: PROTAC activity at c-Met/CRBN in human EBC-1 cells assessed as effect on IKZF2 level at 15.6 nM incubated for 24 hrs by proteomics analysis; assay type: cell-based
Target sequence in this assay (P08581 25-1390 limits assumed): as the sequence (P08581 25-1390 limits assumed) above
Target sequence in this assay (Q96SW2 whole entry partner): as the sequence (Q96SW2 whole entry partner) above

[10] = system: EBC-1; assay: PROTAC activity at c-Met […] mutant /CRBN in human EBC-1 cells assessed as induction of c-Met degradation incubated for 24 hrs by Western blotting analysis; assay type: cell-based; conditions: dose <= 1000.0 nM

With `COc1ccc(C(=O)N2CCC3(CCN(C(=O)CN4CCC(COc5cnc(-c6cccc(Cn7nc(-c8cccc(C#N)c8)ccc7=O)c6)nc5)CC4)CC3)CC2)cc1N1CCC(=O)NC1=O` as the compound, how does the Activity [1] read?
Its Activity is 0.58%.

And the t1/2 [2]?
Its t1/2 is 6.9 h.

What about the Vdss [3] of the same compound?
The Vdss was 36.26 L/kg.

What about the DC50 [4] of the same compound?
Its DC50 is 0.59 nM.

What about the Activity ([4]; dose 0.03 nM) of the same compound?
The Activity was “Dose-dependent-effect”.

What about the Activity [5] of the same compound?
Its Activity is “Dose-dependent-effect”.

What about the Activity [6] of the same compound?
The Activity was “inactive”.

What about the inhibition [7] of the same compound?
The inhibition was “Active”.

And the Activity [8]?
Its Activity is “inactive”.

And the Activity [9]?
Its Activity is “No effect”.

And the Activity [10]?
Its Activity is “Dose-dependent-effect”.
